Literature values, collected in US20110092493A1, “Dose-controlled transdermal promethazine compositions and methods of use” (priority 2008, published 2011).
Where a name gives a salt, the structure may show the parent alone. Read-outs that look alike come from different tables or passages of the source.

Tests used:
[1] = not given; remark: listed apart in the source
[2] = 50 mg applied to the wrist in topical pluronic lecithin organogel, 15 healthy volunteers
[3] = not given; remark: listed apart in the source
[4] = following intramuscular injection
[5] = oral administration
[6] = both 50 mg suppository treatments (generic, brand-name) vs oral syrup (50 mg)
[7] = overall, most common adverse events

| SMILES | differences in AUC0-24 (50 mg suppository treatments vs oral syrup (50 mg)) | maximum promethazine concentration compared with oral syrup [6] | time to maximum promethazine concentration compared with oral syrup [6] | coefficient of variation for the area under the plasma concentration-versus-time curve (AUC) ([1]; 50 mg suppository) | mean AUC from 0 to 24 hours (AUC0-24) ([1]; 50 mg suppository) | coefficient of variation for the area under the plasma concentration-versus-time curve (AUC) ([1]; oral syrup (50 mg)) | mean AUC from 0 to 24 hours (AUC0-24) ([1]; oral syrup (50 mg)) | drowsiness, % of subjects [2] | sedation, % of subjects [2] | adverse event: somnolence ([3]; 25 mg suppository) | adverse event: somnolence ([3]; 50 mg oral) | adverse event: somnolence ([3]; 50 mg suppository) | adverse event: headache [3, 7] | adverse event: somnolence [3, 7] | plasma levels associated with adverse effects [4] | fraction of dose absorbed ([5]; on average) | absolute bioavailability ([5]; limited by first-pass clearance) |
| --- | --- | --- | --- | --- | --- | --- | --- | --- | --- | --- | --- | --- | --- | --- | --- | --- | --- |
| CC(CN1c2ccccc2Sc2ccccc21)N(C)C (centres unmarked) [promethazine hydrochloride] | no significant differences | lower | longer | – | – | – | – | – | – | – | – | – | – | – | – | – | – |
| CC(CN1c2ccccc2Sc2ccccc21)N(C)C (centres unmarked) [promethazine] | – | – | – | greater than 84% | 168 ng·h/mL | greater than 84% | 268 ng·h/mL | 73% | 50% | 5% | 22% | 17% | 28% | 35% | 48 ng/mL | 88% | 25% |
